Molecular target: T1, MCHR2 (Homo sapiens, UniProt Q969V1)
T1 construct: purchased Promega (in-house HiBiT-GPCR construct library, NanoBRET)
Test: NanoBRET screen HiBiT-MCHR2 in HEK293
Format: binding
Description: Each tracer candidate was screened across the entire library of HiBiT-GPCR constructs using NanoBRET as the detection modality. As depicted in Figure 4A, the specificity of interactions was evaluated through decrease in BRET due to competitive displacement of a bound tracer by excess parental compound. Each tracer was analyzed for binding to each HiBiT-GPCR fusion in the absence and in the presence of competing parental compound. Briefly, HEK293 cells were transfected with HiBiT-GPCR constructs diluted into promoterless DNA to reduce expression and maximize translocation to the cell surface. Each tracer candidate was then screened at concentrations of 1 μM and 0.1 μM across cells expressing these fusions. Cells were treated for 1.5 h with tracer either alone or in the presence of 20 μM competing parental compound (i.e., control). BRET was measured upon addition of purified LgBiT and subsequent complementation with HiBiT genetically fused to a GPCR. The specificity of interactions was assessed through a decrease in BRET signal due to competitive displacement of the bound tracer. To further gauge the robustness of these interactions, the fold response over the control (i.e., BRETtracer/BRETcontrol) was calculated. We chose a 1.5-fold response, which translates to ≥7-fold signal over noise as the minimal threshold required to score an interaction as positive.
HiBiT-GPCR DNA constructs were diluted in 10 mM Tris pH 8 to a final concentration of 0.01 μg/μL, arrayed in 96-well plates and stored at −20 °C. For transfection, HEK293 cells were suspended in Opti-MEM (without phenol red) supplemented with 2% fetal bovine serum (Seradigm) and 100 units/mL penicillin–streptomycin (Gibco) at a final concentration of 220,000 cells/mL and dispensed into white 96-well plates at 90 μL/well. Subsequent transfections and screens were carried using an Agilent Bravo Automated Liquid Handling Platform. First, the 96-well HiBiT DNA arrays were diluted 25-fold in Opti-MEM (without serum or phenol red) to a final concentration of 0.0004 μg/μL and 20 μL of the diluted DNAs were transferred into new 96-well plates. Next, promoterless carrier DNA (1 μg/μL) was diluted 25-fold (0.04 μg/μL) and then dispensed into the diluted arrays at 20 μL/well. Following brief mixing, Viafect transfection reagent (Promega) diluted 16-fold into Opti-MEM was dispensed into the plates at 40 μL/well. After mixing by pipetting, plates were incubated for 10 min on the pipetting station deck. The DNA-transfection reagent complexes were then added to plates containing cells. To facilitate the screen, 10 μL of DNA-transfection reagent complexes were added in duplicates to the top 4 and bottom 4 rows, resulting in two identical 48-well arrays per plate. Plates with transfected cells were incubated for 18–20 h at 37 °C/5% CO2. A screen of each tracer across the entire library using two different concentrations requires duplicate plates of transfected cells. Depending on the number of tracers being screened, transfections can be scaled up using the same ratios. The next day, for each tracer, four 20× screening solutions in tracer dilution buffer (Promega) were prepared: two duplicates at final concentration of 20 μM and two duplicates at a final concentration of 2 μM. […] The four resulting solutions were diluted 4-fold in Opti-MEM without serum or phenol red to generate 5× solutions (5 µM and 0.5 µM tracer +/− 100 μM competing compound). To screen the library, a BioTek MultiFlo FX liquid dispenser was used to dispense 22.5 µL of tracer solution to the top 4 rows and 22.5 µL tracer + competing compound solution to the 4 bottom rows. Plates were briefly mixed on an orbital shaker and incubated for 1.5 h at room temperature. […] Plates were briefly mixed on an orbital shaker and incubated for 15 min to allow complementation.

T1 sequence (Q969V1 whole entry): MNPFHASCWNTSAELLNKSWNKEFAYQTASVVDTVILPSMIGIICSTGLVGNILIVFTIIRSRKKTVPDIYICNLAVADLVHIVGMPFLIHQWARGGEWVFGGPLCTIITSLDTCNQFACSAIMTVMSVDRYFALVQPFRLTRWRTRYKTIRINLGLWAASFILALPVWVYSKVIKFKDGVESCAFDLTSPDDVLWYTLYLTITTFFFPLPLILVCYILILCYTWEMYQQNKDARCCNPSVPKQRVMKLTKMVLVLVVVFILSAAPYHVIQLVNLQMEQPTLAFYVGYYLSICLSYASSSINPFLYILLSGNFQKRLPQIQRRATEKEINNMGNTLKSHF

SMILES | NanoBRET Fold Response (MCHR2, tracer 0.1μM) | NanoBRET Fold Response (MCHR2, tracer 1μM) | further results
Cc1nc2n(c(=O)c1CCN1CCC(c3noc4cc(F)ccc34)CC1)CCCC2OC(=O)NCCOCCOCCOCCOCCNC(=O)CCc1ccc2n1[B-](F)(F)[N+]1=C(c3ccc[nH]3)C=CC1=C2 (stereo not shown) [Risperidone-2-NB590] | 0.96 | 0.97 | 
CCOC(=O)c1cc(C#N)c(N2CCC(C(=O)NS(=O)(=O)Cc3ccccc3/C=C/C(=O)NCCNC(=O)CCc3ccc4n3[B-](F)(F)[N+]3=C(c5ccc[nH]5)C=CC3=C4)CC2)nc1C [AZD1283-1-NB590] |  |  | NanoBRET Fold Response (MCHR2, 0.1μM): 1.04; NanoBRET Fold Response (MCHR2, 1μM): 1.06
Cc1cc2c(s1)Nc1ccccc1N=C2N1CCN(CCCNC(=O)CCOCCOCCOCCOCCNC(=O)CCc2ccc3n2[B-](F)(F)[N+]2=C(c4ccc[nH]4)C=CC2=C3)CC1 [Olanzapine-a-2-NB590] | 0.98 | 1.01 | 
COc1ccccc1N1CCN(CCCCN2C(=O)c3ccc(CNC(=O)CCOCCNC(=O)c4ccc(CNC(=O)CCc5ccc6n5[B-](F)(F)[N+]5=C(c7ccc[nH]7)C=CC5=C6)cc4)cc3C2=O)CC1 [NAN-190-3-NB590] | 1.09 | 0.72 | 
CC(C)N(CC[C@H](c1ccccc1)c1cc(CCNC(=O)CCOCCOCCOCCOCCNC(=O)CCc2ccc3n2[B-](F)(F)[N+]2=C(c4ccc[nH]4)C=CC2=C3)ccc1O)C(C)C [Tolterodine-2-NB590] | 1.59 | 1.08 | 
CN(C)CCC=C1c2ccccc2CCc2ccc(C(=O)NCCNC(=O)CCOCCOCCOCCOCCNC(=O)CCc3ccc4n3[B-](F)(F)[N+]3=C(c5ccc[nH]5)C=CC3=C4)cc21 [Amitriptyline-b-2-NB590] |  |  | NanoBRET Fold Response (tracer at 0.1μM, listed as amitriptyline-b-2-NB590): 0.85; NanoBRET Fold Response (tracer at 1μM, listed as amitriptyline-b-2-NB590): 0.90
O=C(CCOCCOCCOCCOCCNC(=O)CCc1ccc2n1[B-](F)(F)[N+]1=C(c3ccc[nH]3)C=CC1=C2)NCCCN1CCN(C2=Nc3ccccc3Oc3ccc(Cl)cc32)CC1 [Loxapine-a-2-NB590] | 1.02 | 1.12 | 
CN(C)CCC=C1c2ccccc2CCc2ccc(C(=O)NCCNC(=O)CCOCCOCCOCCOCCNC(=O)CCc3ccc4n3[B-](F)(F)[N+]3=C(c5ccc[nH]5)C=CC3=C4)cc21 [Amitriptyline-a-2-NB590] |  |  | NanoBRET Fold Response (tracer at 0.1μM): 0.97; NanoBRET Fold Response (tracer at 1μM): 1.01
O=C(CCc1ccc2n1[B-](F)(F)[N+]1=C(c3ccc[nH]3)C=CC1=C2)NCCOCCOCCNC(=O)OCCOCCN1CCN(C2=Nc3ccccc3Sc3ccccc32)CC1 [Quetiapine-a-2-NB590] | 1.03 | 0.74 | 
COc1ccccc1N1CCN(CCCCN2C(=O)c3ccc(CNC(=O)CCOCCOCCOCCOCCNC(=O)CCc4ccc5n4[B-](F)(F)[N+]4=C(c6ccc[nH]6)C=CC4=C5)cc3C2=O)CC1 [NAN-190-2-NB590] | 0.99 | 0.94 | 
CN1CCN(C2=Nc3cc(Cl)ccc3N(CC(=O)NCCOCCOCCOCCOCCNC(=O)CCc3ccc4n3[B-](F)(F)[N+]3=C(c5ccc[nH]5)C=CC3=C4)c3ccccc32)CC1 [Clozapine-c-2-NB590] |  |  | NanoBRET Fold Response (MCHR2, 0.1μM tracer): 1.06; NanoBRET Fold Response (MCHR2, 1μM tracer): 1.01
COc1ccc2[nH]c(-c3ccc(CNC(=O)CCOCCOCCOCCOCCNC(=O)CCc4ccc5n4[B-](F)(F)[N+]4=C(c6ccc[nH]6)C=CC4=C5)cc3)c(CCNC(C)=O)c2n1 [AzomelatoninICO9-2-NB590] |  |  | NanoBRET Fold Response (0.1μM tracer): 1.29; NanoBRET Fold Response (1μM tracer): 1.43
O=C(CCOCCOCCOCCOCCNC(=O)CCc1ccc2n1[B-](F)(F)[N+]1=C(c3ccc[nH]3)C=CC1=C2)NCCCN1CCN(C2=Nc3cc(Cl)ccc3Nc3ccccc32)CC1 [Clozapine-a-2-NB590] |  |  | NanoBRET Fold Response (MCHR2, 0.1μM tracer): 0.98; NanoBRET Fold Response (MCHR2, 1μM tracer): 1.37
CCCn1c(=O)c2[nH]c(-c3ccc(OCC(=O)NCCNC(=O)CCOCCNC(=O)c4ccc(CNC(=O)CCc5ccc6n5[B-](F)(F)[N+]5=C(c7ccc[nH]7)C=CC5=C6)cc4)cc3)nc2n(CCC)c1=O [XAC-3-NB590] | 0.96 | 0.97 | 
O=C(CCc1ccc2n1[B-](F)(F)[N+]1=C(c3ccc[nH]3)C=CC1=C2)NCc1ccc(C(=O)NCCOCCOCCNCC(O)COc2cccc3ccccc23)cc1 (stereo not shown) [Propranolol-3-NB590] |  |  | NanoBRET Fold Response (MCHR2, 0.1μM): 0.91; NanoBRET Fold Response (MCHR2, 1μM): 1.02
O=C(CCc1ccc2n1[B-](F)(F)[N+]1=C(c3ccc[nH]3)C=CC1=C2)NCc1ccc(C(=O)NCCOCCC(=O)N[C@@H]2CC[C@@]3(O)[C@H]4Cc5ccc(O)c6c5[C@@]3(CCN4CC3CC3)[C@H]2O6)cc1 [Naltrexone-3-NB590] | 1.10 | 1.01 | 
N#CN=C(NCCCOc1cccc(CN2CCCCC2)c1)NCCNC(=O)CCOCCOCCOCCOCCNC(=O)CCc1ccc2n1[B-](F)(F)[N+]1=C(c3ccc[nH]3)C=CC1=C2 [Aminopotentidine-2-NB590] | 0.97 | 1.03 | 
COc1ccc2c(n1)c(CCNC(C)=O)cn2CCNC(=O)CCc1ccc2n1[B-](F)(F)[N+]1=C(c3ccc[nH]3)C=CC1=C2 [Azamelatonin-1-NB590] |  |  | NanoBRET Fold Response (0.1μM tracer): 1.45; NanoBRET Fold Response (1μM tracer): 0.86
CC(C)N(CC[C@H](c1ccccc1)c1cc(CCNC(=O)c2ccc(CNC(=O)CCc3ccc4n3[B-](F)(F)[N+]3=C(c5ccc[nH]5)C=CC3=C4)cc2)ccc1O)C(C)C [Tolterodine-BZ-NB590] | 0.93 | 1.02 | 
CN1CCN(C2=Nc3cc(Cl)ccc3Nc3ccc(CNC(=O)CCOCCOCCOCCOCCNC(=O)CCc4ccc5n4[B-](F)(F)[N+]4=C(c6ccc[nH]6)C=CC4=C5)cc32)CC1 [Clozapine-b-2-NB590] |  |  | NanoBRET Fold Response (MCHR2, 0.1μM tracer): 1.00; NanoBRET Fold Response (MCHR2, 1μM tracer): 0.97

Reference: PMC8151276, “An Integrated Approach toward NanoBRET Tracers for Analysis of GPCR Ligand Engagement” (Molecules, 2021)
